{"source": "paper PMC5557372", "about": "(ChemMedChem, 2017)", "key": {"[1]": {"tested_on": "CII", "settings": "read-out: CII IC50, cited from earlier work"}, "[2]": {"biological_target": "Complex II (CII) (Rattus norvegicus, UniProt P21913+Q641Z9+Q6PCT8)", "sequence (P21913 31-282)": "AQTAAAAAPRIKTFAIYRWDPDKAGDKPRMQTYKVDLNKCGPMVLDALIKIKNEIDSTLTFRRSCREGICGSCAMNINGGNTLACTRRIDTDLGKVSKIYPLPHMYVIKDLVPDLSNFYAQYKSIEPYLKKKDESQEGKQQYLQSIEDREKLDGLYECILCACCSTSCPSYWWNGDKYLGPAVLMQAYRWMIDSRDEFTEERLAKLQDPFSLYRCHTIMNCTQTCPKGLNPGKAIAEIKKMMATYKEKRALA", "sequence (Q641Z9 30-169 limits assumed)": "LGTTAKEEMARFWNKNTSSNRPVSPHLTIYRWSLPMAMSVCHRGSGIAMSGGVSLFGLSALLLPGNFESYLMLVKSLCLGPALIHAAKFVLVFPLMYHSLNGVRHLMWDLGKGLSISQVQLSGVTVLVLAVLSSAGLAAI", "sequence (Q6PCT8 57-159)": "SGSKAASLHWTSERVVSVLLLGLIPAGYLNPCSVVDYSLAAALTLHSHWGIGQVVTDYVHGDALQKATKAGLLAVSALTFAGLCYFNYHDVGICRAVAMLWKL", "sequence (Q920L2 35-656 partner)": "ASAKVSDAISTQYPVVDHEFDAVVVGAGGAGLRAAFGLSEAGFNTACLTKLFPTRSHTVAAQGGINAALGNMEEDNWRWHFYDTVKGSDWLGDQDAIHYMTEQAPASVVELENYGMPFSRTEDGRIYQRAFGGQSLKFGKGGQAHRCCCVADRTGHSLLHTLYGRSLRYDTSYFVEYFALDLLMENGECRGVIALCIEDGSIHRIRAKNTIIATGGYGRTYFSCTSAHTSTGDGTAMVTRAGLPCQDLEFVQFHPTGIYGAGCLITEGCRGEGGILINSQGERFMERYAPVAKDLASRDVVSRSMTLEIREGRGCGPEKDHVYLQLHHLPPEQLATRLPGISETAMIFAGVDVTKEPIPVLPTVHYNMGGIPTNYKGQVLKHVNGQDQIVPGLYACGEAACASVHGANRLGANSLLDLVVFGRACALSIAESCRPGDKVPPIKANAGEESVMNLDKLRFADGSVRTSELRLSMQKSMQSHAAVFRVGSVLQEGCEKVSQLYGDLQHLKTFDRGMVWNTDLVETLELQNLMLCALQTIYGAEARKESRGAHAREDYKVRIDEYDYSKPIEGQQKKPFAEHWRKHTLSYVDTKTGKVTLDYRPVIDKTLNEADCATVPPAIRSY", "assay": "Complex II inhibition assay", "assay_type": "biochemical", "settings": "for LLE: Ligand-Lipophilicity Efficiency (LLE = pIC50-ClogP); for CII inhibition activity (in words): rat heart mitochondria"}, "[3]": {"tested_on": "PC3 prostate cancer cells under hypoxia", "assay": "Hypoxia cytotoxicity in microfluidic culture"}, "[4]": {"tested_on": "bovine CII", "settings": "read-out: bovine CII IC50; cited from earlier work"}, "[5]": {"tested_on": "HEK293 cells", "assay": "MTS cytotoxicity assay, HEK293", "settings": "for IC50: Homo sapiens, HEK293, 48 h, read-out: HEK293 IC50"}, "[6]": {"biological_target": "Complex I (NADH ubiquinone-oxidoreductase) (Mus musculus, UniProt P03888+Q91WD5+Q9DC70)", "assay": "Complex I inhibition assay", "assay_type": "biochemical", "settings": "for Selectivity Ratio (CII:CI): Complex I IC50 / Complex II IC50"}, "[7]": {"tested_on": "22Rv1 prostate cancer cells", "assay": "MTS cytotoxicity assay, 22Rv1", "settings": "22Rv1, 48 hours; plateau beyond"}, "[8]": {"tested_on": "22Rv1 cells", "assay": "Seahorse XF metabolic parameters", "assay_type": "cell-based, human", "settings": "22Rv1, 48 hour incubation"}, "[9]": {"tested_on": "DU-145 prostate cancer cells", "assay": "MTS cytotoxicity assay, DU-145", "settings": "Homo sapiens, DU-145, 48 h, read-out: DU-145 IC50"}, "[10]": {"tested_on": "PC3 prostate cancer cells", "assay": "MTS cytotoxicity assay, PC3", "settings": "Homo sapiens, 48 h, read-out: PC3 IC50"}, "[11]": {"settings": "CII IC50, rat heart mitochondria, mean of n = 4 ± S.D."}}, "note": "Values joined by “and” are separate entries in the source; they are usually repeats but may differ in a detail not shown here. Equal values may be shown once. Read-outs that look alike come from different tables or passages of the source."}
{"smiles": "Cc1c(C)c2c(c(C)c1OC(=O)CCC(=O)O)CC[C@@](C)(CCC[C@H](C)CCC[C@H](C)CCCC(C)C)O2", "note": "[α-Tocopheryl succinate, α -Tocopheryl succinate]", "values": [{"measurement": "IC50", "setting": "[1]", "value": 42, "unit": "µM"}]}
{"smiles": "COc1[nH]c(=O)c(C(=O)[C@@H](C)C[C@H](C)[C@@H](Cl)CCl)c(O)c1OC", "note": "[Atpenin A5, atpenin A5, reference compound]", "values": [{"measurement": "IC50", "setting": "[1]", "value": "0.0036 to 0.01", "unit": "µM"}, {"measurement": "IC50", "setting": "[2]; [11]", "value": "3.3 ± 2", "unit": "nM"}]}
{"smiles": "CCCCCCCCC(=O)c1c(O)nc(OC)c(OC)c1O", "note": "[16h, 1-(2,4-dihydroxy-5,6-dimethoxypyridin-3-yl)nonan-1-one]", "values": [{"measurement": "LLE", "setting": "[2]", "value": 4.93}]}
{"smiles": "O=C(O)CC(=O)O", "note": "[Malonate]", "values": [{"measurement": "IC50", "setting": "[1]", "value": 40, "unit": "µM"}]}
{"smiles": "CCCCCC(O)c1c(O)nc(OC)c(OC)c1O", "note": "(racemic) [compound 18, (rac)-3-(1-hydroxyhexyl)-5,6-dimethoxypyridine-2,4-diol]", "values": [{"measurement": "cytotoxic effect under hypoxia (in words)", "setting": "[3]; up to 10 μM", "value": "no cytotoxic effect"}, {"measurement": "CII inhibition activity (in words)", "setting": "[2]", "value": "no CII inhibition activity"}, {"measurement": "inhibition at 0.1 µM", "setting": "[2]; read-out: inhibition of CII at 100 nM concentration", "value": 0, "unit": "%"}]}
{"smiles": "COc1nc(O)c(C(=O)CCCCO)c(O)c1OC", "note": "[16e, 1-(2,4-dihydroxy-5,6-dimethoxypyridin-3-yl)-5-hydroxypentan-1-one]", "values": [{"measurement": "IC50", "setting": "[2]; [11]", "value": "3730 ± 1020", "unit": "nM"}, {"measurement": "fold greater CII activity than diazoxide", "setting": "[2]; vs literature IC50 of diazoxide", "value": 10, "unit": "fold"}]}
{"smiles": "CCCCCC(=O)c1cnc(OC)c(OC)c1O", "note": "[compound 20, 1-(4-hydroxy-5,6-dimethoxypyridin-3-yl)hexan-1-one]", "values": [{"measurement": "CII inhibition activity at 100 nM concentration (in words)", "setting": "[2]", "value": "no activity"}]}
{"smiles": "CCCCCCCCCCC(=O)c1c(O)nc(OC)c(OC)c1O", "note": "[16j, 1-(2,4-dihydroxy-5,6-dimethoxypyridin-3-yl)undecan-1-one]", "values": [{"measurement": "LLE", "setting": "[2]", "value": 4.32}]}
{"smiles": "CCCCC(=O)c1c(O)nc(OC)c(OC)c1O", "note": "[16b, 1-(2,4-dihydroxy-5,6-dimethoxypyridin-3-yl)pentan-1-one]", "values": [{"measurement": "IC50", "setting": "[4]", "value": 0.096, "unit": "µM"}, {"measurement": "IC50", "setting": "[2]; [11]", "value": "345 nM and 346 nM"}, {"measurement": "LLE", "setting": "[2]", "value": 5.37}]}
{"smiles": "COc1nc(O)c(C(=O)CCCCOCc2ccccc2)c(O)c1OC", "note": "[16d, 5-(benzyloxy)-1-(2,4-dihydroxy-5,6-dimethoxypyridin-3-yl)pentan-1-one]", "values": [{"measurement": "IC50", "setting": "[2]; [11]", "value": "281 ± 88.7", "unit": "nM"}]}
{"smiles": "O=C(CC(=O)C(F)(F)F)c1cccs1", "note": "[Thenoyltrifluoroacetone]", "values": [{"measurement": "IC50", "setting": "[1]; control compound in CII assay kits", "value": 30, "unit": "µM"}]}
{"smiles": "CCCCCCCC(=O)c1c(O)nc(OC)c(OC)c1O", "note": "[16g, 1-(2,4-dihydroxy-5,6-dimethoxypyridin-3-yl)octan-1-one]", "values": [{"measurement": "LLE", "setting": "[2]", "value": 4.89}]}
{"smiles": "CCCCCC(O)c1cnc(OC)c(OC)c1O", "note": "(racemic) [compound 19, (rac)-5-(1-hydroxyhexyl)-2,3-dimethoxypyridin-4-ol]", "values": [{"measurement": "CII inhibition activity (in words)", "setting": "[2]", "value": "inactive"}]}
{"smiles": "CCCCCCCCCCCCC(=O)c1c(O)nc(OC)c(OC)c1O", "note": "[16k, 1-(2,4-dihydroxy-5,6-dimethoxypyridin-3-yl)tridecan-1-one]", "values": [{"measurement": "IC50", "setting": "[5]", "value": "28 ± 2", "unit": "µg/mL"}, {"measurement": "selectivity for 22Rv1 over HEK293 cell line", "setting": "[5]; ratio of IC50 values", "value": 14, "unit": "fold"}, {"measurement": "Selectivity Ratio (CII:CI)", "setting": "[6]", "value": ">3030"}, {"measurement": "concentration at which maximal cytotoxicity is reached", "setting": "[7]", "value": 10000, "unit": "ng/mL"}, {"measurement": "LLE", "setting": "[2]", "value": 3.76}, {"measurement": "IC50", "setting": "[2]; read-out: CII IC50 expressed in μg/mL, conversion of the nM IC50", "value": 3.29, "unit": "nM"}]}
{"smiles": "CCCCCC(=O)c1c(O)nc(OC)c(OC)c1O", "note": "[16c, 1-(2,4-dihydroxy-5,6-dimethoxypyridin-3-yl)hexan-1-one]", "values": [{"measurement": "oxygen consumption rate", "setting": "[8]; 1-100 μM", "value": "substantially reduced in a dose-dependent manner"}, {"measurement": "ATP production", "setting": "[8]; vs no treatment control", "value": "inhibition of ATP production"}, {"measurement": "basal respiration", "setting": "[8]; vs no treatment control", "value": "reducing basal respiration"}, {"measurement": "maximal respiration", "setting": "[8]; vs no treatment control", "value": "reduction of maximal respiration"}, {"measurement": "IC50", "setting": "[5]", "value": "71 ± 5.2", "unit": "µg/mL"}, {"measurement": "selectivity for DU-145 and 22Rv1 prostate cancer cells over HEK293", "setting": "[5]; ratio of IC50 values", "value": "~7", "unit": "fold"}, {"measurement": "IC50", "setting": "[9]", "value": "13 ± 1.6", "unit": "µg/mL"}, {"measurement": "IC50", "setting": "[6]", "value": "> 10", "unit": "µM"}, {"measurement": "Selectivity Ratio (CII:CI)", "setting": "[6]", "value": ">156"}, {"measurement": "cell death", "setting": "[3]; 1 μM", "value": 12, "unit": "%"}, {"measurement": "IC50", "setting": "[10]", "value": "55 ± 9.4", "unit": "µg/mL"}, {"measurement": "IC50", "setting": "[2]; CII IC50 expressed in μg/mL, conversion of the nM IC50", "value": 64, "unit": "nM"}, {"measurement": "LLE", "setting": "[2]", "value": 5.62}]}
{"smiles": "CCCCCC(OC)c1cnc(OC)c(OC)c1O", "note": "(stereo not shown) [compound 24, 2,3-dimethoxy-5-(1-methoxyhexyl)pyridin-4-ol]", "values": [{"measurement": "CII inhibition activity at 100 nM concentration (in words)", "setting": "[2]", "value": "no activity"}]}
{"smiles": "COc1nc(O)c(C(=O)c2ccco2)c(O)c1OC", "note": "[16a, (2,4-dihydroxy-5,6-dimethoxypyridin-3-yl)(furan-2-yl)methanone]", "values": [{"measurement": "CII inhibition activity (in words)", "setting": "[2]", "value": "abrogates CII inhibition activity"}]}
{"smiles": "CCCCCCC(=O)c1c(O)nc(OC)c(OC)c1O", "note": "[16f, 1-(2,4-dihydroxy-5,6-dimethoxypyridin-3-yl)heptan-1-one]", "values": [{"measurement": "IC50", "setting": "[4]", "value": 0.02, "unit": "µM"}, {"measurement": "IC50", "setting": "[2]; [11]", "value": 283, "unit": "nM"}, {"measurement": "LLE", "setting": "[2]", "value": 4.57}]}
